In patent US10227324B2 (Shanghai Haiyan Pharmaceutical Technology Co., Ltd., priority 2014, dated 2019):
Where two headings read alike, the source gives them in different places.

How the values were obtained:
PI3K-γ kinase (p110γ) = target: T1, PI3K-γ kinase (p110γ) (Homo sapiens, UniProt P48736); assay: Determination of PI3K kinase activity (ADP Transcreener, fluorescence polarization); format: biochemical; settings: Table 1; ATP 10 μM; read-out: PI3K-γ/nM (IC50 of inhibitory activity against PI3K kinase)
T1 construct: purchased Invitrogen PV4786
Method: The PI3K kinase used in the experiment: p110α/p85α (Invitrogen PV4788), p110β/p85α (Millipore 14-603), p110δ/p85α (Millipore 14-604M), and p110γ (Invitrogen PV4786).
(§1) The inhibition of PI3K kinase activity by the compound to be tested was determined by the following method. The working concentration of each component in the 25 μL enzyme reaction system was: p110α/p85α 3 ng (or p110β/p85α 60 ng, or p110δ/p85α 90 ng, or p110γ 100 ng), ATP 10 μM, PIP2: PS (Invitrogen PV5100) 30 μM and the DMSO concentration was 2% after addition of the compound to be tested.
(§2) At the time of the test, the compound to be tested was dissolved in dimethylsulfoxide (DMSO) according to the desired concentration of the experiment. The compound to be tested was gradiently diluted 3 times (0.00046-1 μM, 8 concentration points) with 10% DMSO. 5 μL of the compound to be tested was added to each well of a 96-well plate (Greiner 675076) in duplicate. 2.5× buffer was prepared and 1 μL of DTT (Millipore 20-265) was added to each 800 μL of 2.5× buffer. […] 10 μL of ATP/PIP2: PS and 10 μL of the PI3K enzyme working solution were added to each well in a 96-well plate. The plate was shaken and mixed uniformly, and then incubated at 25° C. for 1 hour. At the same time, ADP and ATP (0.01 μM, 0.02 μM, 0.04 μM, 0.06 μM, 0.08 μM[…], 0.1 μM, 0.25 μM, 0.5 μM, 1 μM, 2 μM, 5 μM, 10 μM, 12 concentration points) were diluted with buffer to set the standard curve. After completion of the enzyme reaction, 25 μL of ADP assay solution (1% 100×ADP tracer, 0.79% ADP antibody and 10% 10× reaction stop solution) was added and incubated at 25° C. for 1 hour. Fluorescence polarization value [mP] of each well was measured with a Perkin Elmer Victor X5 Fluorescent Microplate. The ADP concentration [ADP] was calculated from the ADP/ATP standard curve and the IC50 values were calculated using the XLFit software.

[1] = target: T2, PI3K-β kinase (p110β/p85α) (Homo sapiens, UniProt P42338); assay: as above; format: biochemical; settings: Table 1; ATP 10 μM; read-out: PI3K-β/nM (IC50 of inhibitory activity against PI3K kinase)
T2 construct: purchased Millipore 14-603
Method: as §1
as §2, with “duplicate.” for “duplicate. 2.5× buffer was prepared and 1 μL of DTT (Millipore 20-265) was added to each 800 μL of 2.5× buffer.”

[2] = target: T3, PI3K-α kinase (p110α/p85α) (Homo sapiens, UniProt P42336); assay: as above; format: biochemical; settings: ATP 10 μM
T3 construct: purchased Invitrogen PV4788
Method: as §1
as §2, with “duplicate.” for “duplicate. 2.5× buffer was prepared and 1 μL of DTT (Millipore 20-265) was added to each 800 μL of 2.5× buffer.”

[3] = target: T4, PI3K-δ kinase (p110δ/p85α) (Homo sapiens, UniProt O00329); assay: as above; format: biochemical; settings: Table 1; ATP 10 μM; read-out: PI3K-δ/nM (IC50 of inhibitory activity against PI3K kinase)
T4 construct: purchased Millipore 14-604M
Method: as §1
as §2, with “duplicate.” for “duplicate. 2.5× buffer was prepared and 1 μL of DTT (Millipore 20-265) was added to each 800 μL of 2.5× buffer.”

NIH3T3 cells = assay: Cytotoxicity by MTT assay, NIH3T3; format: cell-based; settings: Mus musculus, NIH3T3, 72 h, cytotoxicity class, read-out: NIH3T3 cell (IC50/nM)
Method: The MTT assay procedure and steps were carried out as well known to those skilled in the art, and all the reagents used in the methods were commercially available.
(§3) The cells in logarithmic growth phase were digested with 0.25% EDTA trypsin (Gibco, 25200-056) and resuspended in fresh medium. 90 μL of the cell suspension was inoculated into a 96-well cell culture plate (BD Faclon 353072) with a suitable cell density and cultured at 37° C. under 5% CO2. After the cells adhered, 10 μL of the test compound at different concentrations (0.0046-10 μM, 8 concentration points) was added and incubated for another 72 h. 10 μL of MTT (5 mg/mL PBS solution) (Sigma, M5655) was added to react for 4 h. The absorbance at 492 nm was measured by using Thermo Scientific Multiskan MK3 microplate reader and IC50 was calculated using XLFIT 5.0 software (UK IDBS).

T47D cells = assay: Cell inhibitory activity detected by MTT assay, T47D; format: cell-based; settings: Homo sapiens, T47D, 72 h, read-out: T47D cell (IC50/nM), cell growth inhibition
Method: as §3, with “The MTT assay procedure and steps were carried out as well known to those skilled in the art, and all the reagents used in the methods were commercially available. The cells” for “The cells”, “(UK IDBS). T47D cell culture medium: RPMI-1640 medium (Hyclone SH30809.01B)+10% FBS (Gibco 10099-141)” for “(UK IDBS).”

MCF-7 cells = assay: Cell inhibitory activity detected by MTT assay, MCF-7; format: cell-based; settings: Homo sapiens, MCF7, 72 h, read-out: MCF-7 cell (IC50/nM), cell growth inhibition
Method: as §3, with “The MTT assay procedure and steps were carried out as well known to those skilled in the art, and all the reagents used in the methods were commercially available. The cells” for “The cells”, “(UK IDBS). MCF-7 cell culture medium: DMEM medium (Hyclone SH30243.01B+10% FBS (Gibco 10099-141)” for “(UK IDBS).”

[4] = Table 1, read-out: PI3K-α/nM (IC50 of inhibitory activity against PI3K kinase)
[5] = Table 2, read-out: PI3K-α/nM (IC50 of inhibitory activity against PI3K-α kinase)

T1 sequence (P48736 whole entry): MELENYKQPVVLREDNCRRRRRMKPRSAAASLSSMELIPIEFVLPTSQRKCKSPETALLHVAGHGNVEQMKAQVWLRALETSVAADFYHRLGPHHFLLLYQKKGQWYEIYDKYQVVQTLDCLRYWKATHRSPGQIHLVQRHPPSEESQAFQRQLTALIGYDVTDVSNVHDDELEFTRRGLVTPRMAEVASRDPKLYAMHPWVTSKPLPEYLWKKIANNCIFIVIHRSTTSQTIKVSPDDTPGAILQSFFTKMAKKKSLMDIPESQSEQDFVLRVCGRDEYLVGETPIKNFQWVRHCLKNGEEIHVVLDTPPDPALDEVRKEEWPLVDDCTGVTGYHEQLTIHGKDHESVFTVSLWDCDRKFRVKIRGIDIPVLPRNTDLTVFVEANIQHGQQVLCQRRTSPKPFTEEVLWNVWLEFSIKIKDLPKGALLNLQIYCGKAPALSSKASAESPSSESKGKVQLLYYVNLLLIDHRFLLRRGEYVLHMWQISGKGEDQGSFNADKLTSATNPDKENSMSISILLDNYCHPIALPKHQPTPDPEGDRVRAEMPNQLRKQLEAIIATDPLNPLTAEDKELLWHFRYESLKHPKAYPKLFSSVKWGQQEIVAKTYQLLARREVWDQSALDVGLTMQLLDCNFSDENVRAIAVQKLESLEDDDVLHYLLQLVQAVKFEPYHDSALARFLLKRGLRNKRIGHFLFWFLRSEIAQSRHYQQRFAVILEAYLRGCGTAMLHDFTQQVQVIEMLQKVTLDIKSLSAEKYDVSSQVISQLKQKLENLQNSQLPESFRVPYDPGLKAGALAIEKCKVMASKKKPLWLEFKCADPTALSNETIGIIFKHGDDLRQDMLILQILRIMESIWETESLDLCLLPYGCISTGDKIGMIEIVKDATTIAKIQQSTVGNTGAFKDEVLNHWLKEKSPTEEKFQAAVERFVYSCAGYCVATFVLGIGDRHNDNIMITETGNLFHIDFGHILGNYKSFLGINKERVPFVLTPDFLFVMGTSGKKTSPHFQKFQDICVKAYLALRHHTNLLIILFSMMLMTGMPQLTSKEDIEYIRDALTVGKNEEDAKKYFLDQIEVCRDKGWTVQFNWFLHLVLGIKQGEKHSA
T4 sequence (O00329 whole entry): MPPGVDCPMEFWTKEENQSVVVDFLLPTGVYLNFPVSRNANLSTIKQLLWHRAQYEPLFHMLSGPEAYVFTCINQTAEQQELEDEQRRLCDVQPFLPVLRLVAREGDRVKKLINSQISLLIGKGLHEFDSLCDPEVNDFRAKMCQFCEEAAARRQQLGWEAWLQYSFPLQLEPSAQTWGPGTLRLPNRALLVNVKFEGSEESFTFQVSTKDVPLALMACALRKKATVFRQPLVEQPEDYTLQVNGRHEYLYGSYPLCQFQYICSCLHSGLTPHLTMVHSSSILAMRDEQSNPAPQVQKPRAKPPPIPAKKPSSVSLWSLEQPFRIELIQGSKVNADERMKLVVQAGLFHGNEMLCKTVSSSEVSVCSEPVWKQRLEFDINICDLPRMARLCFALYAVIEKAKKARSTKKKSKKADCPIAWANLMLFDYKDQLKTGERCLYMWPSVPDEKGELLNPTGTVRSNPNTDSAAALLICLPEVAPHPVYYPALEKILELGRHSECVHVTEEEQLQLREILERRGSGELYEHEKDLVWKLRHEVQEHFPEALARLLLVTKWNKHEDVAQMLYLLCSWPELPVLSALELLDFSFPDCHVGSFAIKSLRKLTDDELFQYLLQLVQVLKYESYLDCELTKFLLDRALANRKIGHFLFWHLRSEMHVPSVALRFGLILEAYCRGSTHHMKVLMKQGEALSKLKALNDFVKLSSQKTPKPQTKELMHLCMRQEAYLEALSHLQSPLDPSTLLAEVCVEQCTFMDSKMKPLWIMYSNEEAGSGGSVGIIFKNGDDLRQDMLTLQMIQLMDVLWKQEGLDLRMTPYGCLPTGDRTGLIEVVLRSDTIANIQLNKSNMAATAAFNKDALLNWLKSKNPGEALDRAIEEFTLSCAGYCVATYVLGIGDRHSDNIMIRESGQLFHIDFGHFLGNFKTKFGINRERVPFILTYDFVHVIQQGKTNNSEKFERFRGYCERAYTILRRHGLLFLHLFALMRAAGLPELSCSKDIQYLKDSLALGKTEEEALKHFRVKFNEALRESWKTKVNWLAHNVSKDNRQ
T4 sequence (P27986 whole entry partner): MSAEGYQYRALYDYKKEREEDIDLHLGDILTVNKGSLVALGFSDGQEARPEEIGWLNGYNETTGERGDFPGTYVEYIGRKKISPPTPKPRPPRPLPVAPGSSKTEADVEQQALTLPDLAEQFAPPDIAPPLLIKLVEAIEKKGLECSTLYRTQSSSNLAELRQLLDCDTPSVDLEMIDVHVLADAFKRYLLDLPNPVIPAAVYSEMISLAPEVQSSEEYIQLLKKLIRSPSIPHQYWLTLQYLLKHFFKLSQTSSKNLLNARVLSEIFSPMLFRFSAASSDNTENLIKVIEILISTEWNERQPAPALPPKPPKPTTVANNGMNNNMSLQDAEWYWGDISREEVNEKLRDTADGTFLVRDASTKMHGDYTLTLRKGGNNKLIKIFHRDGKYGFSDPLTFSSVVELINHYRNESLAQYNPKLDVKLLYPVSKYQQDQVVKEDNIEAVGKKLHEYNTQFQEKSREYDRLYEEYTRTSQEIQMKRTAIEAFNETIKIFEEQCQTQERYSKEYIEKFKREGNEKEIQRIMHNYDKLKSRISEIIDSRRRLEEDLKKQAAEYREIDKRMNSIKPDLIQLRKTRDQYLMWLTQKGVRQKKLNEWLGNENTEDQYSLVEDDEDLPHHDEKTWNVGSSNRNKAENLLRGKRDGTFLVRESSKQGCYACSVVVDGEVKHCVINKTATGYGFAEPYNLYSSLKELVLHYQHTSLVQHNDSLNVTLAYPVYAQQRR
T2 sequence (P42338 whole entry): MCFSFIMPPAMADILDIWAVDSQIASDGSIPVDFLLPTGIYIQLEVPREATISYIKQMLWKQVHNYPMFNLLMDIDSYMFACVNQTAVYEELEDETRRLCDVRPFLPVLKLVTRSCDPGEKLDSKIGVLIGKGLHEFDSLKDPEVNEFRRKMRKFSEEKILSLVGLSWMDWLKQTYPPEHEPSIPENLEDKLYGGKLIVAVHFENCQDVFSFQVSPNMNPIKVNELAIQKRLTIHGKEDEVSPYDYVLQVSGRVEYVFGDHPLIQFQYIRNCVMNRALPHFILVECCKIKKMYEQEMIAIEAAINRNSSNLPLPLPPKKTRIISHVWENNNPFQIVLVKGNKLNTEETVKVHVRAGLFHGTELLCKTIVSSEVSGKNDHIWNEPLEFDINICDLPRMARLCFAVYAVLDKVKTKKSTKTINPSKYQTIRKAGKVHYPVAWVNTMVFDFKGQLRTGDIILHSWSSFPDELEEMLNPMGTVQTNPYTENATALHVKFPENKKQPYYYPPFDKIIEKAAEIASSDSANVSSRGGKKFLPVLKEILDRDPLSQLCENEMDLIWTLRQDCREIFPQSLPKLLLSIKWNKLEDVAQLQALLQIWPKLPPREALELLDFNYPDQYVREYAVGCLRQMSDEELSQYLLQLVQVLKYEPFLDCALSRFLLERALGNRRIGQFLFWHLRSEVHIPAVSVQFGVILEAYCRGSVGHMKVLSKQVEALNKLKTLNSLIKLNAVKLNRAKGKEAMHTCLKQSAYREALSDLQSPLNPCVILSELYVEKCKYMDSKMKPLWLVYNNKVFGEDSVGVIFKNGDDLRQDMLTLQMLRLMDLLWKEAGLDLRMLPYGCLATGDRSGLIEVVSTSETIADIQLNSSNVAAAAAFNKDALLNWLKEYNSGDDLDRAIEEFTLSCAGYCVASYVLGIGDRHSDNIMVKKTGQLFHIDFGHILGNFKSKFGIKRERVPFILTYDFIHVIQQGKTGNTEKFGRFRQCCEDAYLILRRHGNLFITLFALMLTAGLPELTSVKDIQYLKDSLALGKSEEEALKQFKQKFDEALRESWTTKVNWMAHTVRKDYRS
T2 sequence (P27986 whole entry partner): as the sequence (P27986 whole entry partner) above
T3 sequence (P42336 whole entry): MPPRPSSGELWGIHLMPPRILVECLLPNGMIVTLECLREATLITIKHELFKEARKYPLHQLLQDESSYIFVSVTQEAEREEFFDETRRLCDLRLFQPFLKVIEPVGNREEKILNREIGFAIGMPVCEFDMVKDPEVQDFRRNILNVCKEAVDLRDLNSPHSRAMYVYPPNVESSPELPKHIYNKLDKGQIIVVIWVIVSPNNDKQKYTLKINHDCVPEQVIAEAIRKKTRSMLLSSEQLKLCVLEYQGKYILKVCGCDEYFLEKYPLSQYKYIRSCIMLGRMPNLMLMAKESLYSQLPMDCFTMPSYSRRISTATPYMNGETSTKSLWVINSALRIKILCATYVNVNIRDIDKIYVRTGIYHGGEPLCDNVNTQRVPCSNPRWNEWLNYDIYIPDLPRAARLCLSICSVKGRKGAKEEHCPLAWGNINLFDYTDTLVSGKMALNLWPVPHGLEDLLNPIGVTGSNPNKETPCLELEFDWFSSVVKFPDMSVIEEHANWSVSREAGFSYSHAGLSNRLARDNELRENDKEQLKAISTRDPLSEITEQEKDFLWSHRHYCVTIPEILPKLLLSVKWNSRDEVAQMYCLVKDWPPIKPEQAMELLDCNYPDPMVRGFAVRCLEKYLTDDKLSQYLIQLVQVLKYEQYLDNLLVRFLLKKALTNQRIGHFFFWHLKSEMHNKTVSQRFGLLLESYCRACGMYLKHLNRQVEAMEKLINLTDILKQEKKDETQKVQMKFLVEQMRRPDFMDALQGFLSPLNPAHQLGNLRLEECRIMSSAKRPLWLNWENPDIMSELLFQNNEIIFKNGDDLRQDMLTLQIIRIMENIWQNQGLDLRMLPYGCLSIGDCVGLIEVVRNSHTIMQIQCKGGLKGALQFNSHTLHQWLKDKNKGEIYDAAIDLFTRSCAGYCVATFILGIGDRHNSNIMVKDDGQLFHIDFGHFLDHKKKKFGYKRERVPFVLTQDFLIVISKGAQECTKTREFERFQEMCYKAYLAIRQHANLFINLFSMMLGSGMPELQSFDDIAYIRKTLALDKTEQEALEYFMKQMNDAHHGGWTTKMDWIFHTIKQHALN
T3 sequence (P27986 whole entry partner): as the sequence (P27986 whole entry partner) above

Compound Nc1cc(C(F)(F)F)c(-c2cc(C3(S(=O)(=O)c4ccccc4)CC3)nc(N3CCOCC3)n2)cn1 [Compound S-25] has an IC50 (PI3K-γ kinase (p110γ)) of 1930 nM, an IC50 [1] of 217 nM and an IC50 [2, 4] of 26 nM. For the same compound, the IC50 [3] was 67 nM, the IC50 (NIH3T3 cells) was 1000 to 3000 nM and the IC50 (T47D cells) was 324 nM.
With CS(=O)(=O)C(F)(F)c1cc(-c2cnc(N)cc2C(F)(F)F)nc(N2CCOCC2)n1 [Compound S-53] the IC50 (PI3K-γ kinase (p110γ)) was 287 nM, the IC50 [1] was 1550 nM and the IC50 [2, 4] was 33 nM. For the same compound, the IC50 [3] was 516 nM, the IC50 (NIH3T3 cells) was 1000 to 3000 nM and the IC50 (MCF-7 cells) was 408 nM.
In the case of Nc1cc(C(F)(F)F)c(-c2cc(C3(S(=O)(=O)c4cccc(F)c4)CC3)nc(N3CCOCC3)n2)cn1 [Compound S-57, 5-(6-(1-(3-fluorophenylsulfonyl)cyclopropyl)-2-morpholinopyrimidin-4-yl)-4-(trifluoromethyl)pyridin-2-amine], the IC50 (PI3K-γ kinase (p110γ)) was 236 nM, the IC50 [1] was 284 nM and the IC50 [2, 4] was 18 nM. It also gave an IC50 [3] of 62 nM, an IC50 (NIH3T3 cells) of 1000 to 3000 nM and an IC50 (T47D cells) of 242 nM. For the same compound, the IC50 (MCF-7 cells) was 286 nM.
CN(C1(c2cc(-c3cnc(N)cc3C(F)(F)F)nc(N3CCOCC3)n2)CC1)S(C)(=O)=O [Compound S-14, N-(1-(6-(6-amino-4-(trifluoromethyl)pyridin-3-yl)-2-morpholinopyrimidin-4-yl)cyclopropyl)-N-methylmethanesulfonamide] was tested, and the IC50 [1] was 1120 nM, the IC50 [2, 4] was 13 nM and the IC50 (NIH3T3 cells) was 1000 to 3000 nM. The IC50 (T47D cells) was 278 nM and the IC50 (MCF-7 cells) was 267 nM.
With CS(=O)(=O)C(F)c1cc(-c2cnc(N)cc2C(F)(F)F)nc(N2CCOCC2)n1 (stereo not shown) [Compound S-52, 5-(6-(fluoro(methylsulfonyl)methyl)-2-morpholinopyrimidin-4-yl)-4-(trifluoromethyl)pyridin-2-amine] the IC50 (PI3K-γ kinase (p110γ)) was 914 nM, the IC50 [1] was 2780 nM and the IC50 [2, 4] was 18 nM. For the same compound, the IC50 [3] was 336 nM and the IC50 (NIH3T3 cells) was 3000 to 5000 nM.
Compound CC(C)S(=O)(=O)C(C)(C)c1cc(-c2cnc(N)cc2C(F)(F)F)nc(N2CCOCC2)n1 [Compound S-22] has an IC50 (PI3K-γ kinase (p110γ)) of 2120 nM, an IC50 [1] of 1540 nM and an IC50 [2, 4] of 55 nM. The IC50 [3] was 491 nM and the IC50 (NIH3T3 cells) was 1000 to 3000 nM.
CS(=O)(=O)C1(c2cc(-c3cnc(N)c(C(F)(F)F)c3)nc(N3CCOCC3)n2)CC1 [Compound S-44, 5-(6-(1-(methylsulfonyl)cyclopropyl)-2-morpholinopyrimidin-4-yl)-3-(trifluoromethyl)pyridin-2-amine] was tested, and the IC50 [2, 5] was 858 nM and the IC50 (NIH3T3 cells) was 1000 to 3000 nM.
For CCOC(=O)C1(c2cc(-c3cnc(N)cc3C(F)(F)F)nc(N3CCOCC3)n2)CC1 [Compound S-2], the IC50 [2, 5] was 550 nM and the IC50 (NIH3T3 cells) was 5000 to 10000 nM.
CCS(=O)(=O)C(C)(C)c1cc(-c2cnc(N)cc2C(F)(F)F)nc(N2CCOCC2)n1 [Compound S-29] gave an IC50 (PI3K-γ kinase (p110γ)) of 256 nM, an IC50 [1] of 1740 nM and an IC50 [3] of 612 nM. For the same compound, the IC50 (NIH3T3 cells) was 1000 to 3000 nM.
With Nc1cc(C(F)(F)F)c(-c2cc(C3(C(=O)N4CCOCC4)CC3)nc(N3CCOCC3)n2)cn1 [Compound S-3, (1-(6-(6-amino-4-(trifluoromethyl)pyridin-3-yl)-2-morpholinopyrimidin-4-yl)cyclopropyl)(morpholino)ketone] the IC50 [2, 5] was 280 nM and the IC50 (NIH3T3 cells) was > 10000 nM.
For CS(=O)(=O)NC1(c2cc(-c3cnc(N)cc3C(F)(F)F)nc(N3CCOCC3)n2)CC1 [Compound S-24, N-(1-(6-(6-amino-4-(trifluoromethyl)pyridin-3-yl)-2-morpholinopyrimidin-4-yl)cyclopropyl)methanesulfon amide], the IC50 (PI3K-γ kinase (p110γ)) was 291 nM, the IC50 [1] was 376 nM and the IC50 [2, 4] was 10 nM. The IC50 [3] was 85 nM, the IC50 (NIH3T3 cells) was 5000 to 10000 nM and the IC50 (T47D cells) was 305 nM.
Compound C[C@H]1COCCN1c1nc(-c2cnc(N)cc2C(F)(F)F)cc(C2(S(C)(=O)=O)CC2)n1 [Compound S-6] has an IC50 (PI3K-γ kinase (p110γ)) of 164 nM, an IC50 [2, 4] of 16 nM and an IC50 (NIH3T3 cells) of 1000 to 3000 nM. It also gave an IC50 (T47D cells) of 129 nM and an IC50 (MCF-7 cells) of 112 nM.
